Source: patent publication US20110152252A1 (priority 2007, published 2011)
pIC50, pKi: −log10 of the molar value. Read-outs that look alike come from different tables or passages of the source.

Experiments:
[1] = tested on: Gb3-expressing HT-29 cells; assay: cells; format: cell-based
[2] = tested on: periampular tumors in APC^1638N mice; conditions: mouse, in vivo
[3] = molecular target: mitochondrial peripheral benzodiazepine receptor, mPBR (Homo sapiens, UniProt P30536); conditions: cited from earlier work
Chain of mitochondrial peripheral benzodiazepine receptor, mPBR (P30536 whole entry): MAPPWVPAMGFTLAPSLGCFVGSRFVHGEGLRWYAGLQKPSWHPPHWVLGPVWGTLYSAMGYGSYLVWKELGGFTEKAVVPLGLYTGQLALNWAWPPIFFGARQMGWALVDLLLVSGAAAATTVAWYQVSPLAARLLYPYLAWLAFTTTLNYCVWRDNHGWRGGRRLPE

SN-38
pIC50 ([1]; read-out: IC50): 7.52

CCc1c2c(nc3ccc(OC(=O)N4CCC(N5CCCCC5)CC4)cc13)-c1cc3c(c(=O)n1C2)COC(=O)[C@]3(O)CC [CPT11]
inflammatory reaction in the periampular region (pathology) [2]: weak and very moderate inflammatory reaction | tumor growth / development of periampular tumors [2]: periampular tumors developed | tumor lesions detected (pathology) [2]: high-grade adenomas and carcinomas could be detected | pIC50 ([1]; Homo sapiens, HT-29): 4.15

RO5-4864
pKi [3]: 7.64
